Measurements published in patent publication US9624214B2, “Amino-substituted imidazo[1,2-a]pyridinecarboxamides and their use” (BAYER PHARMA AKTIENGESELLSCHAFT, priority 2012, dated 2017).

Target: T1, recombinant guanylate cyclase reporter cell line (Rattus norvegicus, UniProt P19686+P20595)
T1 construct: expressed in transfected cells
T1 sequence (P20595 1-619): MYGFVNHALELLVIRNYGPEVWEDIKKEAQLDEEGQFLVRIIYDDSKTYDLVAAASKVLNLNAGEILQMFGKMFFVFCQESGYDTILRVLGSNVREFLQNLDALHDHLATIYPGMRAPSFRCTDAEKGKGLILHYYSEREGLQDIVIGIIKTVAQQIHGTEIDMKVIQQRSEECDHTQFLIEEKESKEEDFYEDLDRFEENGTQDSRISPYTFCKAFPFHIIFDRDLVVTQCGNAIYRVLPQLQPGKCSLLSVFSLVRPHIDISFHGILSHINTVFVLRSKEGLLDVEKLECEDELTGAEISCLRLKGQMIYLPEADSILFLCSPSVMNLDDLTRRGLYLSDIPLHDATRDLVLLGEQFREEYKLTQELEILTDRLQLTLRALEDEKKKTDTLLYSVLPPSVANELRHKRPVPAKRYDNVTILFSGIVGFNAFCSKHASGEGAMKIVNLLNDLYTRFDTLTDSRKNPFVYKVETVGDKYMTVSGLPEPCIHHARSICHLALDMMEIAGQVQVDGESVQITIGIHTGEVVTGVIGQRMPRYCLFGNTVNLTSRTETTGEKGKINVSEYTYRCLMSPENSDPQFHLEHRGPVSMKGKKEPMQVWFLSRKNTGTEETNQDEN
T1 sequence (P19686 1-690): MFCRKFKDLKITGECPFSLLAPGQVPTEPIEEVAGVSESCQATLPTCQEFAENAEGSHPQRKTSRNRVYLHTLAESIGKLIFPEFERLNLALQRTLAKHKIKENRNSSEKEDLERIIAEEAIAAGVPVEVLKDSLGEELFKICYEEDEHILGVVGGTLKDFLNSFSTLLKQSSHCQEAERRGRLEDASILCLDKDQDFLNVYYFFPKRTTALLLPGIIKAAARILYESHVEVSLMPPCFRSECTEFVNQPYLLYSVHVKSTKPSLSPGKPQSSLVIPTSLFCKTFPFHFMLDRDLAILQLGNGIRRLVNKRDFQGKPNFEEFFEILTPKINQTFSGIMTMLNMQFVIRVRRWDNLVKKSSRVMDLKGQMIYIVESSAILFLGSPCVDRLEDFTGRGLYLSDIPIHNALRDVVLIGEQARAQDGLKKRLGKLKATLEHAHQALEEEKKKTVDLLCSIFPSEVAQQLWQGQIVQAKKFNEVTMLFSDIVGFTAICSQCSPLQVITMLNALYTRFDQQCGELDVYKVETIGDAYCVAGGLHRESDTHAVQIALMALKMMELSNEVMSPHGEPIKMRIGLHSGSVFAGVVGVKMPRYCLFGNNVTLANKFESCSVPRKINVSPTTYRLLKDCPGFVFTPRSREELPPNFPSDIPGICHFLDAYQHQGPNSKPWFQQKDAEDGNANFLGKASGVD
Assay: B-2. Action on recombinant guanylate cyclase reporter cell line
Assay type: cell-based
Settings: MEC = minimal effective concentration; in some cases mean values from individual determinations
Procedure, shortened: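 Compounds are tested on whole cells carrying a guanylate cyclase reporter construct. The lowest concentration giving an effect is recorded as the MEC.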

Compound | MEC
CCCC(C)(N)CNC(=O)c1c(C)nc2c(OCc3c(F)cccc3OC)cc(C)cn12 (racemic) [Example 351, rac-N-(2-amino-2-methylpentyl)-8-[(2-fluoro-6-methoxybenzyl)oxy]-2,6-dimethylimidazo[1,2-a]pyridine-3-carboxamide] | 3.00 µM
Cc1cc(OCc2c(F)cccc2F)c2nc(C)c(C(=O)NCC3CSCCN3)n2c1 (racemic) [Example 366, rac-8-[(2,6-difluorobenzyl)oxy]-2,6-dimethyl-N-(thiomorpholin-3-ylmethyl)imidazo[1,2-a]pyridine-3-carboxamide] | 0.10 µM
Cc1cc(OCc2c(F)cccc2F)c2nc(C)c(C(=O)NCC(N)c3cccc(OCCO)c3)n2c1 (racemic) [Example 367, rac-N-{2-amino-2-[3-(2-hydroxyethoxy)phenyl]ethyl}-8-[(2,6-difluorobenzyl)oxy]-2,6-dimethylimidazo[1,2-a]pyridine-3-carboxamide] | 3.00 µM
COc1ccc(CC(C)(N)CNC(=O)c2c(C)nc3c(OCc4c(F)cccc4F)cc(C)cn23)cc1 (racemic) [Example 368, rac-N-[2-amino-3-(4-methoxyphenyl)-2-methylpropyl]-8-[(2,6-difluorobenzyl)oxy]-2,6-dimethylimidazo[1,2-a]pyridine-3-carboxamide] | 0.10 µM
Cc1cc(OCc2c(F)cccc2F)c2nc(C)c(C(=O)NCC(N)c3ccc(C)o3)n2c1 (racemic) [Example 369, rac-N-[2-amino-2-(5-methyl-2-furyl)ethyl]-8-[(2,6-difluorobenzyl)oxy]-2,6-dimethylimidazo[1,2-a]pyridine-3-carboxamide] | 0.30 µM
Cc1cc(OCc2c(F)cccc2F)c2nc(C)c(C(=O)NCC(N)c3cnn(C)c3)n2c1 (racemic) [Example 370, rac-N-[2-amino-2-(1-methyl-1H-pyrazol-4-yl)ethyl]-8-[(2,6-difluorobenzyl)oxy]-2,6-dimethylimidazo[1,2-a]pyridine-3-carboxamide] | 3.00 µM
Cc1cc(OCc2c(F)cccc2F)c2nc(C)c(C(=O)NCC(N)c3ccc4c(c3)OCCO4)n2c1 (racemic) [Example 371, rac-N-[2-amino-2-(2,3-dihydro-1,4-benzodioxin-6-yl)ethyl]-8-[(2,6-difluorobenzyl)oxy]-2,6-dimethylimidazo[1,2-a]pyridine-3-carboxamide] | 3.00 µM
Cc1cc(OCc2c(F)cccc2F)c2nc(C)c(C(=O)NCC(N)c3ccc4ncccc4c3)n2c1 (racemic) [Example 372, rac-N-[2-amino-2-(quinolin-6-yl)ethyl]-8-[(2,6-difluorobenzyl)oxy]-2,6-dimethylimidazo[1,2-a]pyridine-3-carboxamide] | 3.00 µM
Cc1cc(OCc2c(F)cccc2F)c2nc(C)c(C(=O)NCC(N)c3csc4ccccc34)n2c1 (racemic) [Example 373, rac-N-[2-amino-2-(1-benzothiophen-3-yl)ethyl]-8-[(2,6-difluorobenzyl)oxy]-2,6-dimethylimidazo[1,2-a]pyridine-3-carboxamide] | 3.00 µM
Cc1cc(OCc2c(F)cccc2F)c2nc(C)c(C(=O)NCC(N)c3cc(F)c(F)c(F)c3)n2c1 (racemic) [Example 374, rac-N-[2-amino-2-(3,4,5-trifluorophenyl)ethyl]-8-[(2,6-difluorobenzyl)oxy]-2,6-dimethylimidazo[1,2-a]pyridine-3-carboxamide] | 1.00 µM
Cc1cc(OCc2c(F)cccc2F)c2nc(C)c(C(=O)NCC(N)c3cccc(OC(F)F)c3)n2c1 (racemic) [Example 375, rac-N-{2-amino-2-[3-(difluoromethoxy)phenyl]ethyl}-8-[(2,6-difluorobenzyl)oxy]-2,6-dimethylimidazo[1,2-a]pyridine-3-carboxamide] | 3.00 µM
Cc1cc(OCc2c(F)cccc2F)c2nc(C)c(C(=O)NCC(N)c3cccc(C(F)(F)F)c3)n2c1 (racemic) [Example 376, rac-N-{2-amino-2-[3-(trifluoromethyl)phenyl]ethyl}-8-[(2,6-difluorobenzyl)oxy]-2,6-dimethylimidazo[1,2-a]pyridine-3-carboxamide] | 3.00 µM
Cc1cc(OCc2c(F)cccc2F)c2nc(C)c(C(=O)NCC(N)c3cccc(OC(F)(F)F)c3)n2c1 (racemic) [Example 377, rac-N-{2-amino-2-[3-(trifluoromethoxy)phenyl]ethyl}-8-[(2,6-difluorobenzyl)oxy]-2,6-dimethylimidazo[1,2-a]pyridine-3-carboxamide] | 3.00 µM
COc1cccc(C(N)CNC(=O)c2c(C)nc3c(OCc4c(F)cccc4F)cc(C)cn23)c1 (racemic) [Example 378, rac-N-[2-amino-2-(3-methoxyphenyl)ethyl]-8-[(2,6-difluorobenzyl)oxy]-2,6-dimethylimidazo[1,2-a]pyridine-3-carboxamide] | 1.00 µM
Cc1cc(OCc2c(F)cccc2F)c2nc(C)c(C(=O)NC(CN)c3ccc4ccccc4c3)n2c1 (racemic) [Example 379, rac-N-[2-amino-1-(2-naphthyl)ethyl]-8-[(2,6-difluorobenzyl)oxy]-2,6-dimethylimidazo[1,2-a]pyridine-3-carboxamide] | 1.00 µM
Cc1cc(OCc2c(F)cccc2F)c2nc(C)c(C(=O)NC(CN)c3cccc(OC(F)(F)F)c3)n2c1 (racemic) [Example 380, rac-N-{2-amino-1-[3-(trifluoromethoxy)phenyl]ethyl}-8-[(2,6-difluorobenzyl)oxy]-2,6-dimethylimidazo[1,2-a]pyridine-3-carboxamide] | 1.00 µM
Cc1cc(OCc2c(F)cccc2F)c2nc(C)c(C(=O)NC(CN)c3ccc4c(c3)OCO4)n2c1 (racemic) [Example 381, rac-N-[2-amino-1-(1,3-benzodioxol-5-yl)ethyl]-8-[(2,6-difluorobenzyl)oxy]-2,6-dimethylimidazo[1,2-a]pyridine-3-carboxamide] | 0.30 µM
COc1cccc(C(CN)NC(=O)c2c(C)nc3c(OCc4c(F)cccc4F)cc(C)cn23)c1 (racemic) [Example 382, rac-N-[2-amino-1-(3-methoxyphenyl)ethyl]-8-[(2,6-difluorobenzyl)oxy]-2,6-dimethylimidazo[1,2-a]pyridine-3-carboxamide] | 0.30 µM
Cc1cc(OCc2c(F)cccc2F)c2nc(C)c(C(=O)NC(CN)c3cccc(Br)c3)n2c1 (racemic) [Example 383, rac-N-[2-amino-1-(3-bromophenyl)ethyl]-8-[(2,6-difluorobenzyl)oxy]-2,6-dimethylimidazo[1,2-a]pyridine-3-carboxamide] | 0.30 µM
Cc1cc(OCc2c(F)cccc2F)c2nc(C)c(C(=O)NC(CN)c3ccc([N+](=O)[O-])cc3)n2c1 (racemic) [Example 384, rac-N-[2-amino-1-(4-nitrophenyl)ethyl]-8-[(2,6-difluorobenzyl)oxy]-2,6-dimethylimidazo[1,2-a]pyridine-3-carboxamide] | 0.30 µM
C=Cc1cccc(C(CN)NC(=O)c2c(C)nc3c(OCc4c(F)cccc4F)cc(C)cn23)c1 (racemic) [Example 385, rac-N-[2-amino-1-(3-ethenylphenyl)ethyl]-8-[(2,6-difluorobenzyl)oxy]-2,6-dimethylimidazo[1,2-a]pyridine-3-carboxamide] | 1.00 µM
COc1ccc(CC(C)(CN)NC(=O)c2c(C)nc3c(OCc4c(F)cccc4F)cc(C)cn23)cc1 (racemic) [Example 386, rac-N-[1-amino-3-(4-methoxyphenyl)-2-methylpropan-2-yl]-8-[(2,6-difluorobenzyl)oxy]-2,6-dimethylimidazo[1,2-a]pyridine-3-carboxamide] | 0.65 µM
Cc1cc(OCc2c(F)cccc2F)c2nc(C)c(C(=O)NC(CN)c3cnn(C)c3)n2c1 (racemic) [Example 387, rac-N-[2-amino-1-(1-methyl-1H-pyrazol-4-yl)ethyl]-8-[(2,6-difluorobenzyl)oxy]-2,6-dimethylimidazo[1,2-a]pyridine-3-carboxamide] | 10.0 µM
